# Experimental data reported in patent publication US20230085307A1, “PYRIDAZINONE COMPOUND AND HERBICIDE” (NISSAN CHEMICAL CORPORATION, priority 2019, published 2023).
# Key:
# velvetleaf [1] = assay: Test Example 4: herbicidal effect by soil treatment (Table 19, symbol M); assay type: in vivo, velvetleaf (Abutilon theophrasti); settings: amount of applied herbicide 320 g/ha
# Summary of the method: (§1)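 Applied as a water-diluted emulsion, the compound was sprayed onto soil covering newly sown seeds. Evaluation came three weeks after application, in a greenhouse held at 25° C. to 30° C.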
# wild oat [2] = assay: Test Example 4: herbicidal effect by soil treatment (Table 19, symbol I); assay type: in vivo, wild oat (Avena fatua); settings: amount of applied herbicide 320 g/ha
# Summary of the method: as §1
# persian speedwell [3] = assay: Test Example 4: herbicidal effect by soil treatment (Table 19, symbol R); assay type: in vivo, Persian speedwell (Veronica persica); settings: amount of applied herbicide 320 g/ha
# Summary of the method: as §1
# Italian ryegrass [4] = assay: Test Example 5: herbicidal effect by foliage application, plastic box (Table 20, symbol K); assay type: in vivo, Italian ryegrass (Lolium multiflorum); settings: 320 g/ha, foliage application after 14-day growth, evaluated three weeks after application
# Summary of the method: (§2)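 Sow seeds spot-wise in sterilized diluvial soil; cover with ~1.5 cm soil. Grow 14 days in greenhouse, 25° C. to 30° C. Spray foliage with emulsion diluted to predetermined amount. Rate effect after 3 weeks.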
# lambsquarters [5] = assay: Test Example 5: herbicidal effect by foliage application, plastic box (Table 20, symbol O); assay type: in vivo, lambsquarters (Chenopodium album); settings: 320 g/ha, foliage application after 14-day growth, evaluated three weeks after application
# Summary of the method: as §2
# persian speedwell [6] = assay: Test Example 5: herbicidal effect by foliage application, plastic box (Table 20, symbol R); assay type: in vivo, Persian speedwell (Veronica persica); settings: 320 g/ha, foliage application after 14-day growth, evaluated three weeks after application
# Summary of the method: as §2
# wild oat [7] = assay: Test Example 5: herbicidal effect by foliage application, plastic box (Table 20, symbol I); assay type: in vivo, wild oat (Avena fatua); settings: 320 g/ha, foliage application after 14-day growth, evaluated three weeks after application
# Summary of the method: as §2
# redroot pigweed [8] = assay: Test Example 4: herbicidal effect by soil treatment (Table 19, symbol N); assay type: in vivo, redroot pigweed (Amaranthus retroflexus); settings: amount of applied herbicide 320 g/ha
# Summary of the method: as §1
# Italian ryegrass [9] = assay: Test Example 4: herbicidal effect by soil treatment (Table 19, symbol K); assay type: in vivo, Italian ryegrass (Lolium multiflorum); settings: amount of applied herbicide 320 g/ha
# Summary of the method: as §1
# blackgrass [10] = assay: Test Example 4: herbicidal effect by soil treatment (Table 19, symbol J); assay type: in vivo, blackgrass (Alopecurus myosuroides); settings: amount of applied herbicide 320 g/ha
# Summary of the method: as §1
# lambsquarters [11] = assay: Test Example 4: herbicidal effect by soil treatment (Table 19, symbol O); assay type: in vivo, lambsquarters (Chenopodium album); settings: amount of applied herbicide 320 g/ha
# Summary of the method: as §1
# southern crabgrass [12] = assay: Test Example 5: herbicidal effect by foliage application, plastic box (Table 20, symbol F); assay type: in vivo, southern crabgrass (Digitaria ciliaris); settings: 320 g/ha, foliage application after 14-day growth, evaluated three weeks after application
# Summary of the method: as §2
# barnyard grass [13] = assay: Test Example 4: herbicidal effect by soil treatment (Table 19, symbol H); assay type: in vivo, barnyard grass (Echinochloa crus-galli); settings: amount of applied herbicide 320 g/ha
# Summary of the method: as §1
# redroot pigweed [14] = assay: Test Example 5: herbicidal effect by foliage application, plastic box (Table 20, symbol N); assay type: in vivo, redroot pigweed (Amaranthus retroflexus); settings: 320 g/ha, foliage application after 14-day growth, evaluated three weeks after application
# Summary of the method: as §2
# velvetleaf [15] = assay: Test Example 5: herbicidal effect by foliage application, plastic box (Table 20, symbol M); assay type: in vivo, velvetleaf (Abutilon theophrasti); settings: 320 g/ha, foliage application after 14-day growth, evaluated three weeks after application
# Summary of the method: as §2
# rice flat sedge = assay: Test Example 3: herbicidal effect by foliage application, Wagner pot (Table 18, symbol E); assay type: in vivo, rice flat sedge (Cyperus iria); settings: 320 g/ha
# Summary of the method: (§3)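 Plants were sown in alluvial soil held under 0.1–0.5 cm standing water and grown 14 days in a greenhouse at 25–30 °C. An emulsifiable formulation, water-diluted to the set dose, was then sprayed onto the foliage, and effects were scored three weeks later using previously defined criteria.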
# blackgrass [16] = assay: Test Example 5: herbicidal effect by foliage application, plastic box (Table 20, symbol J); assay type: in vivo, blackgrass (Alopecurus myosuroides); settings: 320 g/ha, foliage application after 14-day growth, evaluated three weeks after application
# Summary of the method: as §2
# chickweed [17] = assay: Test Example 5: herbicidal effect by foliage application, plastic box (Table 20, symbol P); assay type: in vivo, common chickweed (Stellaria media); settings: 320 g/ha, foliage application after 14-day growth, evaluated three weeks after application
# Summary of the method: as §2
# Chinese sprangletop = assay: Test Example 3: herbicidal effect by foliage application, Wagner pot (Table 18, symbol D); assay type: in vivo, chinese sprangletop (Leptochloa chinensis); settings: 320 g/ha
# Summary of the method: as §3
# windgrass [18] = assay: Test Example 5: herbicidal effect by foliage application, plastic box (Table 20, symbol L); assay type: in vivo, windgrass (Apera spica-venti); settings: 320 g/ha, foliage application after 14-day growth, evaluated three weeks after application
# Summary of the method: as §2
# green foxtail [19] = assay: Test Example 4: herbicidal effect by soil treatment (Table 19, symbol G); assay type: in vivo, green foxtail (Setaria viridis); settings: amount of applied herbicide 320 g/ha
# Summary of the method: as §1
# southern crabgrass [20] = assay: Test Example 4: herbicidal effect by soil treatment (Table 19, symbol F); assay type: in vivo, southern crabgrass (Digitaria ciliaris); settings: amount of applied herbicide 320 g/ha
# Summary of the method: as §1
# barnyard grass [21] = assay: Test Example 3: herbicidal effect by foliage application, Wagner pot (Table 18, symbol H); assay type: in vivo, barnyard grass (Echinochloa crus-galli); settings: 320 g/ha
# Summary of the method: as §3
# green foxtail [22] = assay: Test Example 5: herbicidal effect by foliage application, plastic box (Table 20, symbol G); assay type: in vivo, green foxtail (Setaria viridis); settings: 320 g/ha, foliage application after 14-day growth, evaluated three weeks after application
# Summary of the method: as §2
# windgrass [23] = assay: Test Example 4: herbicidal effect by soil treatment (Table 19, symbol L); assay type: in vivo, windgrass (Apera spica-venti); settings: amount of applied herbicide 320 g/ha
# Summary of the method: as §1
# barnyard grass [24] = assay: Test Example 5: herbicidal effect by foliage application, plastic box (Table 20, symbol H); assay type: in vivo, barnyard grass (Echinochloa crus-galli); settings: 320 g/ha, foliage application after 14-day growth, evaluated three weeks after application
# Summary of the method: as §2
# chickweed [25] = assay: Test Example 4: herbicidal effect by soil treatment (Table 19, symbol P); assay type: in vivo, common chickweed (Stellaria media); settings: amount of applied herbicide 320 g/ha
# Summary of the method: as §1
structure (smiles),measurement,setting,value
CCCC(=O)Oc1c(C)nn(C)c(=O)c1-c1c(-c2ccc(F)cc2OC)sc2c(F)cccc12 [4-012],"Herbicidal effect by soil treatment, M: velvetleaf",velvetleaf [1],1 (Herbicidal rate of 5% or more and less than 20%)
same,"Herbicidal effect by soil treatment, I: wild oat",wild oat [2],0 (Herbicidal rate of 5% or less (almost no effect))
same,"Herbicidal effect by soil treatment, R: persian speedwell",persian speedwell [3],0 (Herbicidal rate of 5% or less (almost no effect))
same,herbicidal effect on K: Italian ryegrass (evaluation grade 0-5),Italian ryegrass [4],3 (Herbicidal rate of 40% or more and less than 70%)
same,herbicidal effect on O: lambsquarters (evaluation grade 0-5),lambsquarters [5],2 (Herbicidal rate of 20% or more and less than 40%)
same,herbicidal effect on R: persian speedwell (evaluation grade 0-5),persian speedwell [6],4 (Herbicidal rate of 70% or more and less than 90%)
same,herbicidal effect on I: wild oat (evaluation grade 0-5),wild oat [7],0 (Herbicidal rate of 5% or less (almost no effect))
same,"Herbicidal effect by soil treatment, N: redroot pigweed",redroot pigweed [8],3 (Herbicidal rate of 40% or more and less than 70%)
same,"Herbicidal effect by soil treatment, K: Italian ryegrass",Italian ryegrass [9],0 (Herbicidal rate of 5% or less (almost no effect))
same,"Herbicidal effect by soil treatment, J: blackgrass",blackgrass [10],0 (Herbicidal rate of 5% or less (almost no effect))
same,"Herbicidal effect by soil treatment, O: lambsquarters",lambsquarters [11],1 (Herbicidal rate of 5% or more and less than 20%)
same,herbicidal effect on F: southern crabgrass (evaluation grade 0-5),southern crabgrass [12],2 (Herbicidal rate of 20% or more and less than 40%)
same,"Herbicidal effect by soil treatment, H: barnyard grass",barnyard grass [13],0 (Herbicidal rate of 5% or less (almost no effect))
same,herbicidal effect on N: redroot pigweed (evaluation grade 0-5),redroot pigweed [14],4 (Herbicidal rate of 70% or more and less than 90%)
same,herbicidal effect on M: velvetleaf (evaluation grade 0-5),velvetleaf [15],3 (Herbicidal rate of 40% or more and less than 70%)
same,herbicidal effect on rice flat sedge (E),rice flat sedge,5 (Herbicidal rate of 90% or more (almost completely withered))
same,herbicidal effect on J: blackgrass (evaluation grade 0-5),blackgrass [16],0 (Herbicidal rate of 5% or less (almost no effect))
same,herbicidal effect on P: chickweed (evaluation grade 0-5),chickweed [17],5 (Herbicidal rate of 90% or more (almost completely withered))
same,herbicidal effect on Chinese sprangletop (D),Chinese sprangletop,3 (Herbicidal rate of 40% or more and less than 70%)
same,herbicidal effect on L: windgrass (evaluation grade 0-5),windgrass [18],1 (Herbicidal rate of 5% or more and less than 20%)
same,"Herbicidal effect by soil treatment, G: green foxtail",green foxtail [19],0 (Herbicidal rate of 5% or less (almost no effect))
same,"Herbicidal effect by soil treatment, F: southern crabgrass",southern crabgrass [20],0 (Herbicidal rate of 5% or less (almost no effect))
same,herbicidal effect on barnyard grass (H),barnyard grass [21],5 (Herbicidal rate of 90% or more (almost completely withered))
same,herbicidal effect on G: green foxtail (evaluation grade 0-5),green foxtail [22],5 (Herbicidal rate of 90% or more (almost completely withered))
same,"Herbicidal effect by soil treatment, L: windgrass",windgrass [23],0 (Herbicidal rate of 5% or less (almost no effect))
same,herbicidal effect on H: barnyard grass (evaluation grade 0-5),barnyard grass [24],3 (Herbicidal rate of 40% or more and less than 70%)
same,"Herbicidal effect by soil treatment, P: chickweed",chickweed [25],0 (Herbicidal rate of 5% or less (almost no effect))
COc1ccccc1-c1sc2c(Cl)cccc2c1-c1c(O)c(C)nn(C)c1=O [4-021],"Herbicidal effect by soil treatment, M: velvetleaf",velvetleaf [1],0 (Herbicidal rate of 5% or less (almost no effect))
same,"Herbicidal effect by soil treatment, I: wild oat",wild oat [2],0 (Herbicidal rate of 5% or less (almost no effect))
same,"Herbicidal effect by soil treatment, R: persian speedwell",persian speedwell [3],3 (Herbicidal rate of 40% or more and less than 70%)
same,herbicidal effect on K: Italian ryegrass (evaluation grade 0-5),Italian ryegrass [4],5 (Herbicidal rate of 90% or more (almost completely withered))
same,herbicidal effect on O: lambsquarters (evaluation grade 0-5),lambsquarters [5],2 (Herbicidal rate of 20% or more and less than 40%)
same,herbicidal effect on R: persian speedwell (evaluation grade 0-5),persian speedwell [6],4 (Herbicidal rate of 70% or more and less than 90%)
same,herbicidal effect on I: wild oat (evaluation grade 0-5),wild oat [7],0 (Herbicidal rate of 5% or less (almost no effect))
same,"Herbicidal effect by soil treatment, N: redroot pigweed",redroot pigweed [8],2 (Herbicidal rate of 20% or more and less than 40%)
same,"Herbicidal effect by soil treatment, K: Italian ryegrass",Italian ryegrass [9],0 (Herbicidal rate of 5% or less (almost no effect))
same,"Herbicidal effect by soil treatment, J: blackgrass",blackgrass [10],0 (Herbicidal rate of 5% or less (almost no effect))
same,"Herbicidal effect by soil treatment, O: lambsquarters",lambsquarters [11],1 (Herbicidal rate of 5% or more and less than 20%)
same,herbicidal effect on F: southern crabgrass (evaluation grade 0-5),southern crabgrass [12],1 (Herbicidal rate of 5% or more and less than 20%)
same,"Herbicidal effect by soil treatment, H: barnyard grass",barnyard grass [13],0 (Herbicidal rate of 5% or less (almost no effect))
same,herbicidal effect on N: redroot pigweed (evaluation grade 0-5),redroot pigweed [14],1 (Herbicidal rate of 5% or more and less than 20%)
same,herbicidal effect on M: velvetleaf (evaluation grade 0-5),velvetleaf [15],2 (Herbicidal rate of 20% or more and less than 40%)
same,herbicidal effect on rice flat sedge (E),rice flat sedge,5 (Herbicidal rate of 90% or more (almost completely withered))
same,herbicidal effect on J: blackgrass (evaluation grade 0-5),blackgrass [16],0 (Herbicidal rate of 5% or less (almost no effect))
same,herbicidal effect on P: chickweed (evaluation grade 0-5),chickweed [17],5 (Herbicidal rate of 90% or more (almost completely withered))
same,herbicidal effect on Chinese sprangletop (D),Chinese sprangletop,4 (Herbicidal rate of 70% or more and less than 90%)
same,herbicidal effect on L: windgrass (evaluation grade 0-5),windgrass [18],5 (Herbicidal rate of 90% or more (almost completely withered))
same,"Herbicidal effect by soil treatment, G: green foxtail",green foxtail [19],0 (Herbicidal rate of 5% or less (almost no effect))
same,"Herbicidal effect by soil treatment, F: southern crabgrass",southern crabgrass [20],0 (Herbicidal rate of 5% or less (almost no effect))
same,herbicidal effect on barnyard grass (H),barnyard grass [21],4 (Herbicidal rate of 70% or more and less than 90%)
same,herbicidal effect on G: green foxtail (evaluation grade 0-5),green foxtail [22],4 (Herbicidal rate of 70% or more and less than 90%)
same,"Herbicidal effect by soil treatment, L: windgrass",windgrass [23],0 (Herbicidal rate of 5% or less (almost no effect))
same,herbicidal effect on H: barnyard grass (evaluation grade 0-5),barnyard grass [24],3 (Herbicidal rate of 40% or more and less than 70%)
same,"Herbicidal effect by soil treatment, P: chickweed",chickweed [25],4 (Herbicidal rate of 70% or more and less than 90%)
